According to patent US6451568B1, “Cloning of human choline ethanolaminephospho transferases synthesis of phosphatidyl choline phosphatidyle thanolamine and platelet activating factor” (Dalhousie University, priority 1998, dated 2002):
Where “and” joins values, the source holds several entries; their conditions need not be identical. Equal entries are not always repeated. Entries after “also recorded” stand apart in the source; their conditions may differ.

T1: hCEPT1p (Homo sapiens, UniProt Q9Y6K0)
T1 construct: All of the hCEPT1p detected in S. cerevisiae was full length; made in house; host or cells: S. cerevisiae HJ091 (cpt1::LEU2 ept1-), plasmid pAH9, microsomal membranes
T1 sequence (Q9Y6K0 1-416): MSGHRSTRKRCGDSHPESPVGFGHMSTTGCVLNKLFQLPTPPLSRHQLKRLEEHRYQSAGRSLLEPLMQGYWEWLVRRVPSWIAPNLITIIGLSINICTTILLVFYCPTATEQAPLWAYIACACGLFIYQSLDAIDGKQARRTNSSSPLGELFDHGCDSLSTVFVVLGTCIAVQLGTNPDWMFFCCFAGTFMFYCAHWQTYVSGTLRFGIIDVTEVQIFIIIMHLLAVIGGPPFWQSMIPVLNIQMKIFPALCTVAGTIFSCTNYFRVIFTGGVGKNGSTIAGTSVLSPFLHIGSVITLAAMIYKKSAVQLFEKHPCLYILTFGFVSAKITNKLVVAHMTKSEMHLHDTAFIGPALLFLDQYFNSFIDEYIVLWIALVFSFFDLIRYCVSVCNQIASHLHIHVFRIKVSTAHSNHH

T2: hCEPT2 (Homo sapiens, UniProt Q8WUD6)
T2 construct: A full length cDNA was isolated using the Genetrapper™ system technology; expressed in transfected cells; host or cells: HEK293s cells, plasmid pCMVsport-hCEPT2 (clone from the pCMV-Sport human brain cDNA library), microsomal membranes
T2 sequence (Q8WUD6 2-406): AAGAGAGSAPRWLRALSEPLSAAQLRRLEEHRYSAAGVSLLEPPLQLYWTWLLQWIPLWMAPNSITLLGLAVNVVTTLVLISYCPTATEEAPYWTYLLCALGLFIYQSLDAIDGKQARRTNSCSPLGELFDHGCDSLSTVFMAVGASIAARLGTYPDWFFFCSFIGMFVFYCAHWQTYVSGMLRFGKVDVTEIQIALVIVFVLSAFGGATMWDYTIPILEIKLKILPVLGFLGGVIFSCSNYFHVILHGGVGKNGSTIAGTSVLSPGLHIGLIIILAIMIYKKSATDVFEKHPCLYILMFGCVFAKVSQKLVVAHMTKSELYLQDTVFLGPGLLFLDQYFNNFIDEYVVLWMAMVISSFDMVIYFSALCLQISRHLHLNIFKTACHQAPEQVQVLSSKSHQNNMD


Key:
hCEPT1p = biological target: T1, hCEPT1p; experiment: Choline-/ethanolaminephosphotransferase enzyme assay, microsomal membranes of S. cerevisiae HJ091 expressing hCEPT1; type: biochemical; conditions: for Specific activity with CDP-choline (in words): CDP-choline as donor, synthesis of PAF, acyl-PAF, di10:0 PtdCho; for Enzyme activity, CDP-choline: phosphobase donor CDP-choline; for Enzyme activity, CDP-choline / Enzyme activity, CDP-ethanolamine: diradylglycerol as acceptor substrate, hCEPT1p in S. cerevisiae HJ091 microsomes; for Enzyme activity, CDP-ethanolamine: phosphobase donor CDP-ethanolamine
Method: Diradylglycerols or ceramides were dried under nitrogen gas and resuspended in 0.015% (w/v) Tween 20™ by sonication. […] Assays were incubated at 37° C. for 15 min and activity terminated by the addition of 3 ml CHCl3/ CH3OH (2/1, v/v) followed by 1.5 ml 0.9% (w/v) KCl. Tubes were vortexed and phase separation facilitated by centrifugation at 2000 g for 10 min. The aqueous phase was aspirated and the organic phase was washed twice with 1.5 ml 40% (v/v) CH3OH. An aliquot of the organic phase was dried in a scintillation vial and radioactivity was determined.

hCEPT2 = biological target: T2, hCEPT2; experiment: Choline-/ethanolaminephosphotransferase activity of microsomes from HEK293s cells overexpressing hCEPT2; type: biochemical
Description: A full length cDNA was isolated using the Genetrapper™ system technology (Life Technologies). A primer corresponding to the most 5′ RACE extneded sequence in hand, […] (SEQ ID NO: 11) was biotinylated using terminal deoxynucleotide transferase and hybridized in solution to a single stranded human brain cDNA library that had been generated by digestion of the library with Gene II protein and exonuclease III. Avidin bound to magnetic beads was used to selectively precipitate the biotinylated probe/hybridized cDNA complex, thus enriching the library for cDNAs complementary to the oligonucleotide used. The single stranded cDNAs were extended using Klenow and E. coli were transformed and screened for positive clones with the end labeled antisense oligo, […], found within the original EST 67440. Plasmid DNA from positive colonies was amplified and hCEPT2 specific inserts confirmed and sized by PCR.
Diradylglycerols or ceramides were dried under nitrogen gas and resuspended in 0.015% (w/v) Tween 20™ by sonication. Unless otherwise indicated, assay buffer contained 100 mM Tris-HCl (pH 8.0), 20 mM MgCl2, 1 mM EDTA, 1 mM diradylglycerol or ceramide (final Tween 20 concentration of 0.00375%, w/v), and 10 μg of microsomal protein. […] Assays were incubated at 37° C. for 15 min and activity terminated by the addition of 3 ml CHCl3/ CH3OH (2/1, v/v) followed by 1.5 ml 0.9% (w/v) KCl. Tubes were vortexed and phase separation facilitated by centrifugation at 2000 g for 10 min. The aqueous phase was aspirated and the organic phase was washed twice with 1.5 ml 40% (v/v) CH3OH. An aliquot of the organic phase was dried in a scintillation vial and radioactivity was determined. Samples were routinely analyzed by thin layer chromatography on silica gel plates in a solvent system of CHCl3/CH3OH/NH4OH/H2) (70/30/4/2, v/v) to confirm the synthesis of PtdCho, PtdEtn, and PAF and their analogues.

Row | Molecule | Enzyme activity, CDP-choline (hCEPT1p) | Enzyme activity, CDP-ethanolamine (hCEPT1p) | further results
1 | CCCCCCCCCCCCCCCCOCC(CO)OC(C)=O (stereo not drawn) [1-O-16:0/2:0] | 106.0 ± 5.6 nmol/min/mg |  | Specific activity with CDP-choline (in words) (hCEPT1p; listed as 1O-16:0/2:0): highest specific activities; Specific activity with CDP-choline (in words) (hCEPT1p; listed as 16:0/2:0): High activities
2 | NCCOP(=O)(O)OP(=O)(O)OC[C@H]1O[C@@H](n2ccc(N)nc2=O)[C@H](O)[C@@H]1O [CDP-ethanolamine] |  |  | Vmax(app) (hCEPT1p; di18:1 as the diradylglycerol substrate): 12.8 nmol/min/mg; Km (hCEPT1p; di18:1 as the diradylglycerol substrate, read-out: Km(app)): 109 µM
3 | O[C@@H](CS)[C@@H](O)CS [DTT] |  |  | Effect of DTT on cholinephosphotransferase activity (hCEPT1p; DTT 0-5 mM in assay mix, regardless of the diradylglycerol substrate, data not shown): insensitive; also recorded: did not affect
4 | CCCCCCCC(=O)OC[C@H](CO)OC(=O)CCCCCCC [di8:0] | 54.9 ± 6.4 nmol/min/mg | 3.1 ± 0.4 nmol/min/mg | 
5 | CCCCCCCCCC(=O)OCC(CO)OC(=O)CCCCCCCCC (stereo not drawn) [di10:0] | 172.5 ± 9.8 nmol/min/mg | 3.7 ± 0.4 nmol/min/mg | Specific activity with CDP-choline (in words) (hCEPT1p): highest specific activities
6 | CCCCCCCCCCCC(=O)OCC(CO)OC(=O)CCCCCCCCCCC (stereo not drawn) [di12:0] | 27.2 ± 6.9 nmol/min/mg | 2.7 ± 0.3 nmol/min/mg | 
7 | CCCCCCCCCCCCCC(=O)OC[C@H](CO)OC(=O)CCCCCCCCCCCCC [di14:0] | 6.7 ± 0.2 nmol/min/mg | 3.7 ± 0.1 nmol/min/mg | 
8 | CCCCCCCCCCCCCCCC(=O)OC[C@H](CO)OC(=O)CCCCCCCCCCCCCCC [di16:0] | 4.3 ± 0.2 nmol/min/mg | 3.5 ± 0.2 nmol/min/mg | 
9 | hCEPT2: human choline/ethanolaminephosphotransferase 2, SEQ ID NO:4 (protein) MAAGAGAGSAPRWLRALSEPLSAAQLRRLEEHRYSAAGVSLLEPPLQLYWTWLLQWIPLWMAPNSITLLGLAVNVVTTLVLISYCPTATEEAPYWTYLLCALGLFIYQSLDAIDGKQARRTNSCSPLGELFDHGCDSLSTVFMAVGASIAARLGTYPDWFFSCSFIGMFVFYCAHWQTYVSGMLRFGKVDVTEIQIALVIVFVLSAFGGATMWDYTIPILEIKLKILPVLGFLGGVIFSCSNYFHVILHGGVGKNGSTIAGTSVLSPGLHIGLIIILAIMIYKKSATDVFEKHPCLYILMFGCVFAKVSQKLVVAHMTKSELYLQDTVFLGPGLLFLDQYFNNFIDEYVVLWMAMVISSFDMVIYFSALCLQISRHLHLNIFKTACHQAPEQVQVLSSKSHQNNMD |  |  | Cholinephosphotransferase activity, mean (hCEPT2; CDP-AA choline, mean of duplicates): 10.673 nmol/min/mg; Cholinephosphotransferase activity (hCEPT2; CDP-AA choline, single determinations): 10.638 nmol/min/mg and 10.708 nmol/min/mg; Ethanolaminephosphotransferase activity, mean (hCEPT2; CDP-AA ethanolamine, mean of duplicates): 2.427 nmol/min/mg; Ethanolaminephosphotransferase activity (hCEPT2; CDP-AA ethanolamine, single determinations): 2.169 nmol/min/mg and 2.685 nmol/min/mg
